The values that follow come from US20090042964A1, “AMINO-5-[SUBSTITUTED-4-(DIFLUOROMETHOXY)PHENYL]-5-PHENYLIMIDAZOLONE COMPOUNDS AS BETA-SECRETASE INHIBITORS” (Wyeth, priority 2007, published 2009).

One data set concerns the target human BACE1 (Homo sapiens, UniProt P56817). Put plainly: Fluorescent kinetic assay, evaluation of BACE1 binding affinity of test compounds. The format is biochemical. As to conditions: 10 nM human BACE1, 25 μM substrate WABC-6, pH 4.5, room temperature; read-out: BACE1 IC50. The procedure, abridged:
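Kinetic fluorescence assay: enzyme added last to inhibitor and substrate mix, reading started immediately; substrate at 100 μM working dilution (25 μL in 100 μL total). Buffer 66.7 mM Na-acetate pH 4.5 with 0.0667% CHAPS for inhibitor and enzyme dilutions; enzyme stock quantified at 280 nm.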

The structures appear in SMILES notation. A value given as a limit tells only on which side of the number the result lay.

Sequence of human BACE1 (P56817 46-501): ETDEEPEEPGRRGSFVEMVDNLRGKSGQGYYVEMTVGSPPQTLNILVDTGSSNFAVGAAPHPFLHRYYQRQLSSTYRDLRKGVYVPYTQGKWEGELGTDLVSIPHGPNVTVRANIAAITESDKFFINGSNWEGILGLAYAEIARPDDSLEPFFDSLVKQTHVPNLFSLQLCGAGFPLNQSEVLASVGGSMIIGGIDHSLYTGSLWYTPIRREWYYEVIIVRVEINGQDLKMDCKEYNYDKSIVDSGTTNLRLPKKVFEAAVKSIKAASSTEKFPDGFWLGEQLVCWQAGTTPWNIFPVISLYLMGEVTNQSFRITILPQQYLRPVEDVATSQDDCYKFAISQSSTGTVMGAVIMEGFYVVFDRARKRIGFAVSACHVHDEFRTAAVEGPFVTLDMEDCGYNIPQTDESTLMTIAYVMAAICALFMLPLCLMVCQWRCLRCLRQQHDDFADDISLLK

The IC50 is the concentration that inhibits the measured activity by half. The term melting point denotes the temperature of the solid-liquid transition. On to `CN1C(=O)C(c2cccc(Br)c2)(c2ccc(OC(F)F)c(C3CC3)c2)N=C1N` (centres unmarked) [Example 164, 2-Amino-5-(3-bromo-phenyl)-5-(3-cyclopropyl-4-difluoromethoxy-phenyl)-3-methyl-3,5-dihydro-imidazol-4-one], for which the melting point is 85 to 87 °C. Also, the IC50 at human BACE1 was under 100 nM.

With `Cc1cc([C@]2(c3cccc(C#CCF)c3)N=C(N)N(C)C2=O)ccc1OC(F)F` [Example 201, (5S)-2-amino-5-[4-(difluoromethoxy)-3-methylphenyl]-5-[3-(3-fluoroprop-1-yn-1-yl)phenyl]-3-methyl-3,5-dihydro-4H-imidazol-4-one], the half-maximal inhibitory concentration (IC50) on human BACE1 was under 100 nM.

`Cc1cc(C2(c3cccc(C#CCCF)c3)N=C(N)N(C)C2=O)ccc1OC(F)F` (centres unmarked) [Example 202, 2-amino-5-[4-(difluoromethoxy)-3-methylphenyl]-5-[3-(4-fluorobut-1-yn-1-yl)phenyl]-3-methyl-3,5-dihydro-4H-imidazol-4-one]: the IC50 on human BACE1 is under 100 nM.

For `Cc1cc(C2(c3ccc(F)c(C#CCCF)c3)N=C(N)N(C)C2=O)ccc1OC(F)F` (centres unmarked) [Example 203, 2-amino-5-[4-(difluoromethoxy)-3-methylphenyl]-5-[4-fluoro-3-(4-fluorobut-1-yn-1-yl)phenyl]-3-methyl-3,5-dihydro-4H-imidazol-4-one], the IC50 on human BACE1 is under 100 nM.

Turning to `Cc1cc([C@@]2(c3cccc(C#CCCF)c3)N=C(N)N(C)C2=O)ccc1OC(F)F` [Example 204, (5R)-2-amino-5-[4-(difluoromethoxy)-3-methylphenyl]-5-[3-(4-fluorobut-1-yn-1-yl)phenyl]-3-methyl-3,5-dihydro-4H-imidazol-4-one], at human BACE1, the IC50 is over 1000 nM.

Turning to `Cc1cc([C@]2(c3ccc(F)c(C#CCCF)c3)N=C(N)N(C)C2=O)ccc1OC(F)F` [Example 205, (5R)-2-amino-5-[4-(difluoromethoxy)-3-methylphenyl]-5-[4-fluoro-3-(4-fluorobut-1-yn-1-yl)phenyl]-3-methyl-3,5-dihydro-4H-imidazol-4-one], the IC50 at human BACE1 was under 100 nM.

For `Cc1cc([C@]2(c3cccc(C#CCCF)c3)N=C(N)N(C)C2=O)ccc1OC(F)F` [Example 206, (5S)-2-amino-5-[4-(difluoromethoxy)-3-methylphenyl]-5-[3-(4-fluorobut-1-yn-1-yl)phenyl]-3-methyl-3,5-dihydro-4H-imidazol-4-one], at human BACE1, the IC50 was under 100 nM.

Consider `Cc1cc([C@@]2(c3ccc(F)c(C#CCCF)c3)N=C(N)N(C)C2=O)ccc1OC(F)F` [Example 207, (5S)-2-amino-5-[4-(difluoromethoxy)-3-methylphenyl]-5-[4-fluoro-3-(4-fluorobut-1-yn-1-yl)phenyl]-3-methyl-3,5-dihydro-4H-imidazol-4-one], for which the IC50 on human BACE1 is 110 to 1000 nM.

In the case of `CN1C(=O)C(c2ccc(F)c(C#CCCF)c2)(c2ccc(OC(F)F)c(C3CC3)c2)N=C1N` (centres unmarked) [Example 208, 2-amino-5-[3-cyclopropyl-4-(difluoromethoxy)phenyl]-5-[4-fluoro-3-(4-fluorobut-1-yn-1-yl)phenyl]-3-methyl-3,5-dihydro-4H-imidazol-4-one], on human BACE1, the IC50 is under 100 nM.

Turning to `CN1C(=O)C(c2cccc(C#CCF)c2)(c2ccc(OC(F)F)c(C3CC3)c2)N=C1N` (centres unmarked) [Example 209, 2-amino-5-[3-cyclopropyl-4-(difluoromethoxy)phenyl]-5-[3-(3-fluoroprop-1-yn-1-yl)phenyl]-3-methyl-3,5-dihydro-4H-imidazol-4-one], the IC50 at human BACE1 was under 100 nM.

As for `CN1C(=O)C(c2ccc(F)c(C#CCF)c2)(c2ccc(OC(F)F)c(C3CC3)c2)N=C1N` (centres unmarked) [Example 210, 2-amino-5-[3-cyclopropyl-4-(difluoromethoxy)phenyl]-5-[4-fluoro-3-(3-fluoroprop-1-yn-1-yl)phenyl]-3-methyl-3,5-dihydro-4H-imidazol-4-one], on human BACE1, the IC50 is under 100 nM.

With `CN1C(=O)C(c2cccc(C#CCCF)c2)(c2ccc(OC(F)F)c(C3CC3)c2)N=C1N` (centres unmarked) [Example 211, 2-amino-5-[3-cyclopropyl-4-(difluoromethoxy)phenyl]-5-[3-(4-fluorobut-1-yn-1-yl)phenyl]-3-methyl-3,5-dihydro-4H-imidazol-4-one], on human BACE1, the IC50 was under 100 nM.

With `CN1C(=O)[C@@](c2cccc(C#CCF)c2)(c2ccc(OC(F)F)c(C3CC3)c2)N=C1N` [Example 212, (5R)-2-amino-5-[3-cyclopropyl-4-(difluoromethoxy)phenyl]-5-[3-(3-fluoroprop-1-yn-1-yl)phenyl]-3-methyl-3,5-dihydro-4H-imidazol-4-one], the IC50 on human BACE1 is over 1000 nM.

Consider `CN1C(=O)[C@](c2cccc(C#CCF)c2)(c2ccc(OC(F)F)c(C3CC3)c2)N=C1N` [Example 213, (5S)-2-amino-5-[3-cyclopropyl-4-(difluoromethoxy)phenyl]-5-[3-(3-fluoroprop-1-yn-1-yl)phenyl]-3-methyl-3,5-dihydro-4H-imidazol-4-one], for which the IC50 on human BACE1 was under 100 nM.

`CN1C(=O)[C@@](c2ccc(F)c(C#CCCF)c2)(c2ccc(OC(F)F)c(C3CC3)c2)N=C1N` [Example 214, (5S)-2-amino-5-[3-cyclopropyl-4-(difluoromethoxy)phenyl]-5-[4-fluoro-3-(4-fluorobut-1-yn-1-yl)phenyl]-3-methyl-3,5-dihydro-4H-imidazol-4-one]: on human BACE1, the IC50 is over 1000 nM.

On to `CN1C(=O)[C@](c2ccc(F)c(C#CCCF)c2)(c2ccc(OC(F)F)c(C3CC3)c2)N=C1N` [Example 215, (5R)-2-amino-5-[3-cyclopropyl-4-(difluoromethoxy)phenyl]-5-[4-fluoro-3-(4-fluorobut-1-yn-1-yl)phenyl]-3-methyl-3,5-dihydro-4H-imidazol-4-one], for which the half-maximal inhibitory concentration (IC50) at human BACE1 was under 100 nM.
